Measurements taken from patent US20230414774A1, “ANTI-CLDN18.2 ANTIBODY, DRUG CONJUGATE, AND PREPARATION METHOD THEREFOR AND USE THEREOF” (CSPC MEGALITH BIOPHARMACEUTICAL CO., LTD., priority 2020, published 2023).
Each block holds one molecule with its values, some of them ahead of it.

Tests used:
[1] = system: human gastric cancer NUGC-4-18.2 xenografts; test: In vivo efficacy, xenograft, cisplatin as reference; parameters: species or system nude mice; conditions: i.v., 6 mg/kg qw×3, day 20
Description: 2) In this experiment, nude mice with human gastric cancer NUGC-4-18.2 xenografts were used. When the tumor volume reached about 120 mm^3 (day 6 after inoculation), 64 animals with bulky xenografts were selected and divided into eight groups (on day 0) with tumor volume balancing among groups. Eight animals in individual groups were intravenously administered 0.9% sodium chloride injection (0.9% INJ NS, vehicle control group), SYJS001-ADC at 1, 2 and 4 mg/kg (qw×3), SYJS001-ADC at 4 and 8 mg/kg (single dose), SYJS001-mAb at 4 mg/kg (qw×3) and Cisplatin at 6 mg/kg (qw×3, once a week for 3 weeks), respectively. Tumor diameters were measured twice a week. Mice were weighed, and data were recorded. Tumor growth was dynamically observed by measuring tumor diameters at different times after dosing. At the end of the experiment on day 20, the mice were asphyxiated with carbon dioxide, and the tumors were peeled and weighed.

[2] = system: human pancreatic cancer Bxpc3-18.2 xenografts; test: In vivo efficacy, xenograft, gemcitabine as reference; parameters: species or system nude mice; conditions: i.v., 50 mg/kg biw×4, day 28
Description: 1) In this experiment, nude mice with human pancreatic cancer Bxpc3-18.2 xenografts were used. When the tumor volume reached about 100 mm^3 (day 39 after inoculation), 48 animals with bulky xenografts were selected and divided into six groups (on day 0) with tumor volume balancing among groups. Eight animals in individual groups were intravenously administered 0.9% sodium chloride injection (0.9% INJ NS, vehicle control group), SYJS001-ADC at 2, 4 and 8 mg/kg (single dose), SYJS001-mAb (SYJS001 nude antibody) at 8 mg/kg (single dose) and Gemcitabine (GEM) at 50 mg/kg (biw×4, twice a week for 4 weeks), respectively. Tumor diameters were measured twice a week. Mice were weighed, and data were recorded. Tumor growth was dynamically observed by measuring tumor diameters at different times after dosing. At the end of the experiment on day 28, the mice were asphyxiated with carbon dioxide, and the tumors were peeled and weighed.

[3] = molecular target: human CLDN18.2 on cells (human) (UniProt P56856); test: flow cytometry on BxPC3-CLDN18.2 cells, ED50 comparison

Molecule: N.N.[Cl][Pt][Cl] [Cisplatin]
tumor weight suppression rate [1]: 66.5%

Molecule: Nc1ccn([C@@H]2O[C@H](CO)[C@@H](O)C2(F)F)c(=O)n1 [Gemcitabine]
tumor weight suppression rate [2]: 51.0%

fold affinity against IMAB362 [3]: 2 fold
B1: SYJS001 monoclonal antibody (antibody, human IgG1, kappa, V domains shown)
VH: EVQLSESGGALVQPGESLRLSCAASGFTFSSYAMTWVRQAPGKGLEWVSSLSGSGRSTYYAASIKGRFTISRDNSKNTLYLQMSSLRAEDTAIYYCAKSLSYYHYYFDYWGQGTLVTVSS
VL: DIQLTQSPSFLSASVGDRVPITCRASQDISNYLAWYQQKPGKAPKLLIYSASTLQSGVPSRFSGSGSGTEFTLTISSLQPEDFASYHCQQVKTYPLTFGGGTKVEIKR
